# According to ChEMBL document CHEMBL5055685, “Discovery of the First Potent IDO1/IDO2 Dual Inhibitors: A Promising Strategy for Cancer Immunotherapy” (J Med Chem, 2021):
# Calls of active or inactive are those of the source. The calls are words filed in the database; no cut-off is given here.
# Legend:
# [1] = target: TRAF2 and NCK-interacting protein kinase (Homo sapiens) (UniProt Q9UKE5); experiment: Inhibition of TNIK (unknown origin) at 1 uM
# [2] = Protein binding in monkey plasma assessed as fraction unbound by equilibrium dialysis; type: ADME, cell-free, Macaca mulatta; conditions: rhesus monkey
# [3] = Protein binding in Beagle dog plasma by equilibrium dialysis; type: ADME, cell-free, Canis lupus familiaris; conditions: read-out: PPB (converted)
# [4] = target: Serine/threonine-protein kinase tousled-like 2 (Homo sapiens) (UniProt Q86UE8); experiment: Inhibition of TLK2 (unknown origin) at 1 uM
# [5] = target: Rhodopsin kinase GRK1 (Homo sapiens) (UniProt Q15835); experiment: Inhibition of GRK1 (unknown origin) at 1 uM
# [6] = target: Dual specificity mitogen-activated protein kinase kinase 7 (Homo sapiens) (UniProt O14733); experiment: Inhibition of MKK7 (unknown origin) at 1 uM
# [7] = target: cAMP-dependent protein kinase catalytic subunit alpha (Homo sapiens) (UniProt P17612); experiment: Inhibition of PKA (unknown origin) at 1 uM
# [8] = tested on: HCT-116; experiment: Cytotoxicity against human HCT-116 cells assessed as reduction in cell viability by CCK8 assay; type: functional, cell-based
# [9] = target: Mitogen-activated protein kinase kinase kinase 9 (Homo sapiens) (UniProt P80192); experiment: Inhibition of MLK1 (unknown origin) at 1 uM
# [10] = target: Protein kinase C beta type (Homo sapiens) (UniProt P05771); experiment: Inhibition of PKCb2 (unknown origin) at 1 uM
# [11] = organism: Homo sapiens; experiment: Inhibition of PKG2 (unknown origin) at 1 uM
# [12] = target: Aryl hydrocarbon receptor (Homo sapiens, UniProt P35869); experiment: Activation of AhR (unknown origin) assessed as effect on CYP1A1 mRNA expression measured after 24 hrs by quantitative RT-PCR analysis; type: ADME
# [13] = target: Proto-oncogene tyrosine-protein kinase Src (Homo sapiens) (UniProt P12931); experiment: Inhibition of c-SRC (unknown origin) at 1 uM
# [14] = target: Serine/threonine-protein kinase MRCK alpha (Homo sapiens) (UniProt Q5VT25); experiment: Inhibition of MRCKalpha (unknown origin) at 1 uM
# [15] = target: MAP kinase-interacting serine/threonine-protein kinase 2 (Homo sapiens) (UniProt Q9HBH9); experiment: Inhibition of MNK2 (unknown origin) at 1 uM
# [16] = target: Serine/threonine-protein kinase 3 (Homo sapiens) (UniProt Q13188); experiment: Inhibition of MST2 (unknown origin) at 1 uM
# [17] = target: SRSF protein kinase 3 (Homo sapiens) (UniProt Q9UPE1); experiment: Inhibition of MSSK1 (unknown origin) at 1 uM
# [18] = target: Serine/threonine-protein kinase D2 (Homo sapiens) (UniProt Q9BZL6); experiment: Inhibition of PKD2 (unknown origin) at 1 uM
# [19] = target: Dual serine/threonine and tyrosine protein kinase (Homo sapiens) (UniProt Q6XUX3); experiment: Inhibition of RIPK5 (unknown origin) at 1 uM
# [20] = target: CDK18/Cyclin Y (Homo sapiens) (UniProt Q07002+Q8ND76); experiment: Inhibition of CDK18/cyclin-Y (unknown origin) at 1 uM; type: protein-complex assay
# [21] = target: Serine/threonine-protein kinase Nek9 (Homo sapiens) (UniProt Q8TD19); experiment: Inhibition of NEK9 (unknown origin) at 1 uM
# [22] = target: Mitogen-activated protein kinase 14 (Homo sapiens) (UniProt Q16539); experiment: Inhibition of p38alpha (unknown origin) at 1 uM
# [23] = target: Glycogen synthase kinase-3 beta (Homo sapiens) (UniProt P49841); experiment: Inhibition of GSK3B (unknown origin) at 1 uM
# [24] = Protein binding in Sprague-Dawley rat plasma assessed as fraction unbound by equilibrium dialysis; type: ADME, cell-free
# [25] = tested on: HCT-116; experiment: Antitumor immunity in BALB/c mouse xenografted with human HCT-116 cells assessed as early Treg cells in spleen by propidium iodide staining based flow cytometry analysis (reference value: 9.33 %); type: functional
# [26] = target: Leucine-rich repeat serine/threonine-protein kinase 2 (Homo sapiens) (UniProt Q5S007); experiment: Inhibition of LRRK2 (unknown origin) at 1 uM
# [27] = target: Serine/threonine-protein kinase STK11 (Homo sapiens) (UniProt Q15831); experiment: Inhibition of LKB1 (unknown origin) at 1 uM
# [28] = target: Dual specificity tyrosine-phosphorylation-regulated kinase 4 (Homo sapiens) (UniProt Q9NR20); experiment: Inhibition of DYRK4 (unknown origin) at 1 uM
# [29] = target: Dual specificity mitogen-activated protein kinase kinase 3 (Homo sapiens) (UniProt P46734); experiment: Inhibition of MEK3 (unknown origin) at 1 uM
# [30] = target: Phosphorylase b kinase gamma catalytic chain, liver/testis isoform (Homo sapiens) (UniProt P15735); experiment: Inhibition of PHKgamma2 (unknown origin) at 1 uM
# [31] = target: Ribosomal protein S6 kinase alpha-1 (Homo sapiens) (UniProt Q15418); experiment: Inhibition of RSK1 (unknown origin) at 1 uM
# [32] = target: Ribosomal protein S6 kinase beta-1 (Homo sapiens) (UniProt P23443); experiment: Inhibition of p70S6K (unknown origin) at 1 uM
# [33] = target: Kinase suppressor of Ras 1 (Homo sapiens) (UniProt Q8IVT5); experiment: Inhibition of KSR1 (unknown origin) at 1 uM
# [34] = target: CDK9/Cyclin K (Homo sapiens) (UniProt P50750+O75909); experiment: Inhibition of CDK9/cyclin-K (unknown origin) at 1 uM; type: protein-complex assay
# [35] = target: Death-associated protein kinase 3 (Homo sapiens) (UniProt O43293); experiment: Inhibition of ZIPK (unknown origin) at 1 uM
# [36] = target: Serine/threonine-protein kinase MAK (Homo sapiens) (UniProt P20794); experiment: Inhibition of MAK (unknown origin) at 1 uM
# [37] = target: Serine/threonine-protein kinase WNK2 (Homo sapiens) (UniProt Q9Y3S1); experiment: Inhibition of WNK2 (unknown origin) at 1 uM
# [38] = target: Serine/threonine-protein kinase pim-1 (Homo sapiens) (UniProt P11309); experiment: Inhibition of PIM1 (unknown origin) at 1 uM
# [39] = Oral bioavailability in Sprague-Dawley rat at 50 mg/kg; type: ADME, organism-based; conditions: in vivo
# [40] = target: Calcium/calmodulin-dependent protein kinase type 1B (Homo sapiens) (UniProt Q6P2M8); experiment: Inhibition of CAMK1B (unknown origin) at 1 uM
# [41] = target: Rhodopsin kinase GRK7 (Homo sapiens) (UniProt Q8WTQ7); experiment: Inhibition of GRK7 (unknown origin) at 1 uM
# [42] = target: Serine/threonine-protein kinase 10 (Homo sapiens) (UniProt O94804); experiment: Inhibition of LOK (unknown origin) at 1 uM
# [43] = Apparent permeability across apical to basolateral side in human Caco-2 cells assessed as drug recovery; type: ADME, cell-based; conditions: read-out: Drug recovery
# [44] = target: TGF-beta receptor type-2 (Homo sapiens) (UniProt P37173); experiment: Inhibition of TGFBR2 (unknown origin) at 1 uM
# [45] = target: Dual specificity protein kinase CLK4 (Homo sapiens) (UniProt Q9HAZ1); experiment: Inhibition of CLK4 (unknown origin) at 1 uM
# Sequence of Mitogen-activated protein kinase kinase kinase 9 (Homo sapiens) (P80192 whole entry, looked up): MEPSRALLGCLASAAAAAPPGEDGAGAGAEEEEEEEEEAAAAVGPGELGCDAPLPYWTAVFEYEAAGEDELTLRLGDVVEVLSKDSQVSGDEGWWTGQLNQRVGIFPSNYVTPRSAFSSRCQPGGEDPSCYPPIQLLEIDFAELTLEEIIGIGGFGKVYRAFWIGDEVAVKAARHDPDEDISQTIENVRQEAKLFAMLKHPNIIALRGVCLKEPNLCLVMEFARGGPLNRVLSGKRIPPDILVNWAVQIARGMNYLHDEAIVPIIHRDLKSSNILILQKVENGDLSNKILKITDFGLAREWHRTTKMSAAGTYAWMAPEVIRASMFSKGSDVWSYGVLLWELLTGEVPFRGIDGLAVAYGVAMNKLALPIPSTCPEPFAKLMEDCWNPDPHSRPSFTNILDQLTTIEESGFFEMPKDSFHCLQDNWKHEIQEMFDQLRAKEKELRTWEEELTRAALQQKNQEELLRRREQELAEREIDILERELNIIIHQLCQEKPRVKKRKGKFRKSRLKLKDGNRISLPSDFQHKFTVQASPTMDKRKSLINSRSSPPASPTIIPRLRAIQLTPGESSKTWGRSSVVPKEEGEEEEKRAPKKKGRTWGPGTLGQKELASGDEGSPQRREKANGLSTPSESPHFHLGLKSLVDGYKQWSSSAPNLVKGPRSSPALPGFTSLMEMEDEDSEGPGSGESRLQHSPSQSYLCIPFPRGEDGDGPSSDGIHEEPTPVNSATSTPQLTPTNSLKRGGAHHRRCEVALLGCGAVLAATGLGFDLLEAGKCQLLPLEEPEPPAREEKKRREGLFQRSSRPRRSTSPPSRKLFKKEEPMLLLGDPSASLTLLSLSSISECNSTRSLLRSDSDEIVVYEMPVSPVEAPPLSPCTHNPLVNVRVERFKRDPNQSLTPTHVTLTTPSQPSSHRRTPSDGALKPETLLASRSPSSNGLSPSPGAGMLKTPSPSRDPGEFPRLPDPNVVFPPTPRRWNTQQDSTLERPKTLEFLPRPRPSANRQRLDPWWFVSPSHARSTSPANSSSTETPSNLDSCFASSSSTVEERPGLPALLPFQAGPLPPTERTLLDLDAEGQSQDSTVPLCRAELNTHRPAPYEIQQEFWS
# Sequence of Serine/threonine-protein kinase 3 (Homo sapiens) (Q13188 whole entry): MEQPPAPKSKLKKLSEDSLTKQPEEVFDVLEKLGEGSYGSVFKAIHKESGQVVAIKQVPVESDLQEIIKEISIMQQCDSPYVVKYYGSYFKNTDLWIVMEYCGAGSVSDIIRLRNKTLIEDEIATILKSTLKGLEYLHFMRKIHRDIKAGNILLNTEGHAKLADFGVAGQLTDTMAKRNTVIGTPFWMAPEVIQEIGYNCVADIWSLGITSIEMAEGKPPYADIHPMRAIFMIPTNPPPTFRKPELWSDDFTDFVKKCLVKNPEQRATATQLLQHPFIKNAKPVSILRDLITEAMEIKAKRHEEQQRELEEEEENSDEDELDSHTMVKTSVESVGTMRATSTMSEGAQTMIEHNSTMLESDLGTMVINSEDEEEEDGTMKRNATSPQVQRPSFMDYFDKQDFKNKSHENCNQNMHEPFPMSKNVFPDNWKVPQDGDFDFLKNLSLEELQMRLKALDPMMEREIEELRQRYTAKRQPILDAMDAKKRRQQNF
# Sequence of Calcium/calmodulin-dependent protein kinase type 1B (Homo sapiens) (Q6P2M8 whole entry): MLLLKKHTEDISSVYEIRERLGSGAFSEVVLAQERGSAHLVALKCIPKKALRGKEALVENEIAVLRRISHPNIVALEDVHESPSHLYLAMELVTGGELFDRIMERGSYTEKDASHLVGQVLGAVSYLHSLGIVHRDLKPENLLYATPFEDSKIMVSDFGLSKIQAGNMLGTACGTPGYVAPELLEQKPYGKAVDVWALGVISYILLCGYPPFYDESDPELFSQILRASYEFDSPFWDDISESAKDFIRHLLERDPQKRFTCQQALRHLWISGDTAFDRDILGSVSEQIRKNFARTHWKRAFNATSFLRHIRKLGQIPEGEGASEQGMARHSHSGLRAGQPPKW
# Sequence of Serine/threonine-protein kinase MRCK alpha (Homo sapiens) (Q5VT25 whole entry): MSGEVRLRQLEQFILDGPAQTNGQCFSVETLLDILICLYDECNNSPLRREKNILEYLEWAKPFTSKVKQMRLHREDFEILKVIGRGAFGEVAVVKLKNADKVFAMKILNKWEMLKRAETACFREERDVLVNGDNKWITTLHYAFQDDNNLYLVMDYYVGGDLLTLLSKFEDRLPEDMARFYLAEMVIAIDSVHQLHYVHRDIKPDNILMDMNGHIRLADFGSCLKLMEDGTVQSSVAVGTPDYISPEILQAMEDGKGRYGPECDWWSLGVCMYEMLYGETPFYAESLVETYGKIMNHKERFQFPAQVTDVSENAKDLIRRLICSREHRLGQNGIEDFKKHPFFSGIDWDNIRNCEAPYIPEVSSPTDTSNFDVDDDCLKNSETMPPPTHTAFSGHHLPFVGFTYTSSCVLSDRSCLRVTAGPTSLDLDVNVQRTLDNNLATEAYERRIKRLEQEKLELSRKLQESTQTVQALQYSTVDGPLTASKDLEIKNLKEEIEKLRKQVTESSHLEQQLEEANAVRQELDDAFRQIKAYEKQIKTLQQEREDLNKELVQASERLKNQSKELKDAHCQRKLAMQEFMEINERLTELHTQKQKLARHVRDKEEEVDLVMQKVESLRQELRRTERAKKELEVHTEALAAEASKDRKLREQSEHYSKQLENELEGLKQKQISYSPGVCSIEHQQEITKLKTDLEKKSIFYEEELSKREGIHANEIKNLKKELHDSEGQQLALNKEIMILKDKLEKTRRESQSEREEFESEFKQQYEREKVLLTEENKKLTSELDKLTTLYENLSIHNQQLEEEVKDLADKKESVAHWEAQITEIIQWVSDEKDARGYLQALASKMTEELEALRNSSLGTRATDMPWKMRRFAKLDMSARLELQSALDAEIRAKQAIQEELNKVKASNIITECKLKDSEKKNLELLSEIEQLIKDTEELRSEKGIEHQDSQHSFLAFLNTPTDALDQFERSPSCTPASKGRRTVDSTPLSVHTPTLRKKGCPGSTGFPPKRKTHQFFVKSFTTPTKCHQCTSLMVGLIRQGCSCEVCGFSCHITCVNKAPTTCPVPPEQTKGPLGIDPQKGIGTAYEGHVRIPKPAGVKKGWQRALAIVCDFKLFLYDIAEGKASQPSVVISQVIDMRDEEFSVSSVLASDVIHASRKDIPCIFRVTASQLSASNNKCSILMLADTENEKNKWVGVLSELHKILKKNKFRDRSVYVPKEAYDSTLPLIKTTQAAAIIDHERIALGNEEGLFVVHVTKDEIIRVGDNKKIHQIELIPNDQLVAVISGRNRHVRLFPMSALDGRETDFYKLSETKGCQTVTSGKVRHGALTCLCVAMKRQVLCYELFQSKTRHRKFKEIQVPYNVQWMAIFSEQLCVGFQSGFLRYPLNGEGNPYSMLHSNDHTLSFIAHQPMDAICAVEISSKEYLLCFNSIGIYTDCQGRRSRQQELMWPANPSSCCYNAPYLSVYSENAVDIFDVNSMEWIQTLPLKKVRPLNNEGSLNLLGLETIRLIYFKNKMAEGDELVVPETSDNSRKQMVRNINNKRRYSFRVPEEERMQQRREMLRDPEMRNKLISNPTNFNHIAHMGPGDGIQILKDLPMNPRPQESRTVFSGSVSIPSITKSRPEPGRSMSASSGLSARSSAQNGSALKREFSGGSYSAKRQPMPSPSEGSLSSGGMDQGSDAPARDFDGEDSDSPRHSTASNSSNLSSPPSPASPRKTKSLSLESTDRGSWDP
# Sequence of Serine/threonine-protein kinase Nek9 (Homo sapiens) (Q8TD19 whole entry): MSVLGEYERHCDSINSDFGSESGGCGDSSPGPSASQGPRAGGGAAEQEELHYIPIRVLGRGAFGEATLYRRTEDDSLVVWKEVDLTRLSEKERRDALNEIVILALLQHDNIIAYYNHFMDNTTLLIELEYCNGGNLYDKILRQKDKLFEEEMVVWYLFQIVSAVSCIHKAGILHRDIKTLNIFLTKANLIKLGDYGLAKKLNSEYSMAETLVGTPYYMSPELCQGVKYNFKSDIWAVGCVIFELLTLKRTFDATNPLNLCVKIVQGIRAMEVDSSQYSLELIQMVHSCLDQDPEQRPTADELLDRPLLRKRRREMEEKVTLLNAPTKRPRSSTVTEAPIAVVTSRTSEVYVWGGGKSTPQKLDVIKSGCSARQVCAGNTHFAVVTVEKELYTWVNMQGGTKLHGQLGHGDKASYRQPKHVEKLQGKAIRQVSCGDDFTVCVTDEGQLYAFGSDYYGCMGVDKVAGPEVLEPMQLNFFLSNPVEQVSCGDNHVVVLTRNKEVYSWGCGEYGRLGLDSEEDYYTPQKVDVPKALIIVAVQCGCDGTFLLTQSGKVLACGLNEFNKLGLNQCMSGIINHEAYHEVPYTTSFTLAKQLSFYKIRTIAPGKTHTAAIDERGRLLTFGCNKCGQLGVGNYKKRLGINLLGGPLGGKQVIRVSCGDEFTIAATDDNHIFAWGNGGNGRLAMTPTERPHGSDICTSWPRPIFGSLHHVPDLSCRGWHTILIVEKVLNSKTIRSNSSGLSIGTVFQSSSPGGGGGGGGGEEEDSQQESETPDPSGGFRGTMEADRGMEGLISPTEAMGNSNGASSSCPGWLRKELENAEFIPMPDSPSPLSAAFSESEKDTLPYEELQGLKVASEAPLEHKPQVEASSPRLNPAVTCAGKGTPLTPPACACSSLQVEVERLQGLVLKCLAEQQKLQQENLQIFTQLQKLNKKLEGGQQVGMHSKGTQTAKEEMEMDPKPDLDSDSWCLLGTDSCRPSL
# Sequence of Phosphorylase b kinase gamma catalytic chain, liver/testis isoform (Homo sapiens) (P15735 whole entry, canonical isoform): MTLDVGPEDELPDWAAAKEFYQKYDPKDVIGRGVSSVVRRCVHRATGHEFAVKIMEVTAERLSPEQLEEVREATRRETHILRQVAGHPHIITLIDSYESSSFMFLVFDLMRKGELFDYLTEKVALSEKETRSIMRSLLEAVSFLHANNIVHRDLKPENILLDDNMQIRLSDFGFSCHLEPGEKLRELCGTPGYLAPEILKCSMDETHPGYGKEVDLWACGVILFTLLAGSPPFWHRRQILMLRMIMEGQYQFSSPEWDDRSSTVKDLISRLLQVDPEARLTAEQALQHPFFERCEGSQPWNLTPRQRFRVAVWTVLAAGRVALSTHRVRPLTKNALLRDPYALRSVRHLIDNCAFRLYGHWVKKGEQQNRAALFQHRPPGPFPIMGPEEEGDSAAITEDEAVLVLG
smiles,measurement,setting,value
OCCOCc1cn(CCNc2nonc2/C(=N/O)Nc2ccc(F)c(Br)c2)nn1,inhibition,[1],inactive
same,fraction unbound,[2],0.0763
same,fraction unbound,[3],0.0498
same,inhibition,[4],inactive
same,inhibition,[5],inactive
same,inhibition,[6],inactive
same,inhibition,[7],inactive
same,IC50,[8],56.1 µM
same,inhibition,[9],inactive
same,inhibition,[10],inactive
same,inhibition,[11],inactive
same,Activity,[12],Not Active
same,inhibition,[13],inactive
same,inhibition,[14],inactive
same,inhibition,[15],inactive
same,inhibition,[16],inactive
same,inhibition,[17],inactive
same,inhibition,[18],inactive
same,inhibition,[19],inactive
same,inhibition,[20],inactive
same,inhibition,[21],inactive
same,inhibition,[22],inactive
same,inhibition,[23],inactive
same,fraction unbound,[24],0.0672
same,Activity,[25],4.54%
same,inhibition,[26],inactive
same,inhibition,[27],inactive
same,inhibition,[28],inactive
same,inhibition,[29],inactive
same,inhibition,[30],inactive
same,inhibition,[31],inactive
same,inhibition,[32],inactive
same,inhibition,[33],inactive
same,inhibition,[34],inactive
same,inhibition,[35],inactive
same,inhibition,[36],inactive
same,inhibition,[37],inactive
same,inhibition,[38],inactive
same,bioavailability,[39],12%
same,inhibition,[40],inactive
same,inhibition,[41],inactive
same,inhibition,[42],inactive
same,recovery,[43],91.1%
same,inhibition,[44],inactive
same,inhibition,[45],inactive
